Reference: paper PMC7659976, “Benzobicyclo[3.2.1]octene Derivatives as a New Class of Cholinesterase Inhibitors” (Molecules, 2020)
Like-named read-outs stand apart in the source and are kept apart here.

Assays:
[1] = target: BChE derived from purified human plasma (Homo sapiens, UniProt P06276); experiment: biochemical; conditions: 0.1 M phosphate buffer pH 7.4, 25 °C, ATCh substrate
recombinant human AChE = recombinant human AChE (Homo sapiens, UniProt P22303); experiment: biochemical; assay type: biochemical; conditions: for IC50: 0.1 M phosphate buffer pH 7.4, 25 °C, ATCh substrate, read-out: Inhibition of human AChE, IC50 ± SEM
BChE [2] = system: BChE; design: method as in doi:10.1016/j.molstruc.2018.05.027, doi:10.3906/kim-1903-74; conditions: photoproducts of Figure 1; read-out: BChE inhibition IC50; cited from earlier work
BChE [3] = assay type: biochemical; conditions: compared to huperzine A
AChE = system: AChE; design: method as in doi:10.1016/j.molstruc.2018.05.027, doi:10.3906/kim-1903-74; conditions: photoproducts of Figure 1; read-out: AChE inhibition IC50; cited from earlier work
[4] = Table 1, benzobicyclo[3.2.1]octadiene benzylamines, read-out: Inhibition of BChE, IC50 ± SEM
[5] = Table 3, epoxides, alcohols and ethers
[6] = Table 3, epoxides, alcohols and ethers, read-out: Inhibition of human BChE, IC50 ± SEM
[7] = Table 4, acylated furo-benzobicyclo[3.2.1]octenes/octadienes
[8] = Table 4, acylated furo-benzobicyclo[3.2.1]octenes/octadienes, read-out: Inhibition of human BChE, IC50 ± SEM
[9] = Table 2, oximes and oxime ethers, read-out: Inhibition of BChE, IC50 ± SEM

Sequence of recombinant human AChE (P22303 32-614): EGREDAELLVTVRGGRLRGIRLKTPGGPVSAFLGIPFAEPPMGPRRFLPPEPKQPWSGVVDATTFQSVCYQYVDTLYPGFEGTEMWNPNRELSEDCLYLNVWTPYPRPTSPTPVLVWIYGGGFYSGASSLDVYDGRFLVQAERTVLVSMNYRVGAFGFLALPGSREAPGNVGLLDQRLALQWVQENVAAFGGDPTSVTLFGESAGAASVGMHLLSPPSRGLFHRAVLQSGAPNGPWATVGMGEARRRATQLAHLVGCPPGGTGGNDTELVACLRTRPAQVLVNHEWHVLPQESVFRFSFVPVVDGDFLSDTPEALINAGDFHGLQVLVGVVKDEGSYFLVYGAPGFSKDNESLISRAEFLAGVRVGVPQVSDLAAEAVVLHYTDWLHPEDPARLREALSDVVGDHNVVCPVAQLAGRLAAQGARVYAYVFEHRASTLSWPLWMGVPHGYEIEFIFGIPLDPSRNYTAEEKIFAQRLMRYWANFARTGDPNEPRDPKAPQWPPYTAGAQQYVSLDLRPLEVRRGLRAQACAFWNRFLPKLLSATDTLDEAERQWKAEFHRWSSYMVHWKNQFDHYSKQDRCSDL
Sequence of BChE derived from purified human plasma (P06276 29-602): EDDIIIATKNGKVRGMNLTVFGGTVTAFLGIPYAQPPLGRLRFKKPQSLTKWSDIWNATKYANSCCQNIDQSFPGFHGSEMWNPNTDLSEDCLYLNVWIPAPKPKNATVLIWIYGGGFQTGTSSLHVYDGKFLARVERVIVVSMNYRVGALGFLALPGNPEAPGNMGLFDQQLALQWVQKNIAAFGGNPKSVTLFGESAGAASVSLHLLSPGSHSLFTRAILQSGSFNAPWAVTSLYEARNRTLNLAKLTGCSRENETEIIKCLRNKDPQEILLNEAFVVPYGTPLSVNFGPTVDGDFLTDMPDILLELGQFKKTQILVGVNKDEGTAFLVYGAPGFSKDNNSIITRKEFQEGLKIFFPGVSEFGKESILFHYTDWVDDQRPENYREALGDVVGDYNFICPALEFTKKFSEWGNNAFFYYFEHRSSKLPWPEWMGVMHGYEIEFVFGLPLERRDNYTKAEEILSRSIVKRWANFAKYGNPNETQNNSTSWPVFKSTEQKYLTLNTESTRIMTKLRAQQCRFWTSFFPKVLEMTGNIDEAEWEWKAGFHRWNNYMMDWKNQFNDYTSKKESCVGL

Q: Which IC50 [1, 4] does the source give for Cc1ccccc1CNc1ccc(C2=CCC3CC2c2ccccc23)cc1 (stereo not drawn) [Compound 9] here?
A: Its IC50 is 240 ± 210 µM.

Q: Which results are given for CCCOC1C[C@@H]2C[C@@H](c3ccccc32)[C@H]1c1ccccc1 (stereo partly drawn) [endo-43, (5R,6S,9S)-6-Phenyl-7-propoxy-6,7,8,9-tetrahydro-5H-5,9-methanobenzo[7]annulene]?
A: IC50 (recombinant human AChE; [5]): > 100 µM; IC50 [1, 6]: 17 ± 2 µM

Q: With c1ccc([C@H]2C3OC3[C@@H]3C[C@H]2c2ccccc23)cc1 (stereo partly drawn) [endo-38, (2R,7R,8S)-8-Phenyl-1a,7,8,8a-tetrahydro-2H-2,7-methanobenzo[4,5]cyclohepta[1,2-b]-oxirene] as the compound, how does the “Potency for AChE relative to BChE (fold lower)” value (recombinant human AChE; AChE versus BChE) read?
A: The value was 3 fold.

Q: And the IC50 (recombinant human AChE; [5])?
A: Its IC50 is 62 ± 8 µM.

Q: What about the IC50 [1, 6] of the same compound?
A: The IC50 was 22 ± 5 µM.

Q: For Cc1ccc(CNc2ccc(C3C=CC4CC3c3ccccc34)cc2)cc1 (stereo not drawn) [endo-11], which IC50 [1, 4] is on record?
A: Its IC50 is ≥ 500 µM.

Q: With Clc1ccc(CNc2ccc(C3C=CC4CC3c3ccccc34)cc2)cc1 (stereo not drawn) [endo-14] as the compound, how does the IC50 [1, 4] read?
A: The IC50 was > 500 µM.

Q: What does the source list for C/C(O)=C/C=C1\C(O)CC2CC1c1ccccc12 [Compound 51, (5R,9R,Z)-6-((Z)-3-Hydroxybut-2-ene-1-ilydene)-6,7,8,9-tetrahydro-5H-5,9-methano-benzo[7]annulen-7-ol]?
A: IC50 (recombinant human AChE; [7]): 8.3 ± 4 µM; IC50 [1, 8]: > 300 µM

Q: For CCCO/N=C\c1cc2c(o1)CC1CC2c2ccccc21 (stereo not drawn) [Compound 27, (Z)-9,10-Dihydro-4H-4,9-methanobenzo[4,5]cyclohepta[1,2-b]furan-2-carbaldehyde O-propyl oxime], which IC50 [1, 9] is on record?
A: Its IC50 is 74 ± 19 µM.

Q: With Nc1ccc(C2=CCC3CC2c2ccccc23)cc1 (stereo not drawn) [Compound 20] as the compound, how does the IC50 [1, 4] read?
A: The IC50 was 182 ± 98 µM.

Q: For C1=C[C@H](c2ccc(NCc3ccco3)cc2)[C@H]2C[C@@H]1c1ccccc12 [endo-7, 4-((5R,6S,9S)-6,9-Dihydro-5H-5,9-methanobenzo[7]annulen-6-yl)-N-(fur-2-ylmethyl)aniline], which IC50 [1, 4] is on record?
A: The IC50 was ≥ 500 µM.

Q: With Cc1ccccc1CNc1ccc(C2C=CC3CC2c2ccccc23)cc1 (stereo not drawn) [endo-9] as the compound, how does the IC50 [1, 4] read?
A: The IC50 was > 500 µM.

Q: With CC(C)O/N=C/c1cc2c(o1)CC1CC2c2ccccc21 (stereo not drawn) [Compound 28] as the compound, how does the IC50 [1, 9] read?
A: Its IC50 is 24 ± 3 µM.

Q: Which IC50 [1, 4] does the source give for COc1cccc(CNc2ccc(C3C=CC4CC3c3ccccc34)cc2)c1 (stereo not drawn) [endo-16] here?
A: The IC50 was > 500 µM.

Q: What does the source list for OCCCOC1CC2CC(c3ccccc32)C1c1ccccc1 [endo-45, 3-(((5R,6S,9S)-6-Phenyl-6,7,8,9-tetrahydro-5H-5,9-methanobenzo[7]annulen-7-il)oxy)propan-1-ol]?
A: IC50 (recombinant human AChE; [5]): > 100 µM; IC50 [1, 6]: 90 ± 24 µM

Q: Which results are given for CCC(=O)C/C=C1\C(O)=CC2CC1c1ccccc12 [Compound 53, (Z)-1-((5R,9R)-7-Hydroxy-5,9-dihydro-6H-5,9-methanobenzo[7]annulen-6-ilydene)-pentan-3-one]?
A: IC50 (recombinant human AChE; [7]): 188 ± 133 µM; IC50 [1, 8]: 146 ± 30 µM

Q: Which IC50 (recombinant human AChE; [5]) does the source give for COc1ccc([C@H]2[C@@H]3OC3[C@@H]3C[C@H]2c2ccccc23)cc1 (stereo partly drawn) [endo-39, (2R,7R,8S,8as)-8-(4-Methoxyphenyl)-1a,7,8,8a-tetrahydro-2H-2,7-methanobenzo[4,5]cyclohepta[1,2-b]oxirene] here?
A: The IC50 was > 100 µM.

Q: What about the IC50 [1, 6] of the same compound?
A: Its IC50 is 33 ± 6 µM.

Q: With C1=C[C@H](c2ccc(NCc3cccs3)cc2)[C@H]2C[C@@H]1c1ccccc12 [endo-8, 4-((5R,6S,9S)-6,9-dihydro-5H-5,9-methanobenzo[7]annulen-6-yl)-N-(thien-2-ylmethyl)aniline] as the compound, how does the IC50 [1, 4] read?
A: Its IC50 is > 500 µM.

Q: With CC(=O)O/N=C/c1cc2c(o1)CC1CC2c2ccccc21 (stereo not drawn) [Compound 30] as the compound, how does the IC50 [1, 9] read?
A: The IC50 was 61 ± 36 µM.

Q: For COc1ccc(CNc2ccc(C3=CCC4CC3c3ccccc34)cc2)cc1 (stereo not drawn) [Compound 17], which IC50 [1, 4] is on record?
A: The IC50 was 120 ± 64 µM.

Q: With C=CCO/N=C/c1cc2c(o1)CC1CC2c2ccccc21 (stereo not drawn) [Compound 29] as the compound, how does the IC50 [1, 9] read?
A: Its IC50 is 100 ± 32 µM.

Q: For O=C1CC2CC(/C1=C/C/C=N/OCCCCl)c1ccccc12 (stereo not drawn) [Compound 35], which IC50 [1, 9] is on record?
A: The IC50 was 60 ± 11 µM.

Q: Which IC50 [1, 9] does the source give for CC(=O)O/N=C/C/C=C1\C(O)CC2CC1c1ccccc12 (stereo not drawn) [Compound 34] here?
A: The IC50 was 78 ± 31 µM.

Q: Which IC50 [1, 9] does the source give for C=CCCO/N=C/C(=O)/C=C1\C=CC2CC1c1ccccc12 (stereo not drawn) [Compound 33] here?
A: The IC50 was 140 ± 49 µM.

Q: For Cc1cccc(CNc2ccc(C3C=CC4CC3c3ccccc34)cc2)c1 (stereo not drawn) [endo-10], which IC50 [1, 4] is on record?
A: The IC50 was 63 ± 13 µM.

Q: With CC(C)O/N=C/C/C=C1\C(O)CC2CC1c1ccccc12 (stereo not drawn) [Compound 32] as the compound, how does the IC50 [1, 9] read?
A: The IC50 was 31 ± 4 µM.

Q: For Clc1ccc(C2=CCC3CC2c2ccccc23)cc1 (stereo not drawn) [Compound 1], which IC50 [1, 4] is on record?
A: The IC50 was 260 ± 120 µM.

Q: For CCCOC1C[C@@H]2C[C@@H](c3ccccc32)[C@H]1c1ccc(OC)cc1 (stereo partly drawn) [endo-47, (5R,6S,9S)-6-(4-Methoxyphenyl)-7-propoxy-6,7,8,9-tetrahydro-5H-5,9-methanobenzo[7]annulene], which IC50 (recombinant human AChE; [5]) is on record?
A: The IC50 was > 100 µM.

Q: What about the IC50 [1, 6] of the same compound?
A: Its IC50 is > 200 µM.

Q: Which IC50 [1, 9] does the source give for CCO/N=C/c1cc2c(o1)CC1CC2c2ccccc21 (stereo not drawn) [Compound 26] here?
A: Its IC50 is 380 ± 250 µM.

Q: Which IC50 [1, 4] does the source give for Fc1ccc(CNc2ccc(C3C=CC4CC3c3ccccc34)cc2)cc1 (stereo not drawn) [endo-20] here?
A: The IC50 was > 500 µM.

Q: Which IC50 [1, 4] does the source give for Clc1cccc(CNc2ccc(C3C=CC4CC3c3ccccc34)cc2)c1 (stereo not drawn) [endo-13] here?
A: Its IC50 is > 500 µM.

Q: With C1=CC(c2ccncc2)C2CC1c1ccccc12 (stereo not drawn) [endo-2] as the compound, how does the IC50 (BChE [2]) read?
A: The IC50 was 8.8 µM.

Q: And the “Potency as BChE inhibitor in comparison to huperzine A” value (BChE [3])?
A: The value was “about five times more potent”.

Q: Which IC50 [1, 4] does the source give for COc1ccc(CNc2ccc(C3C=CC4CC3c3ccccc34)cc2)cc1 (stereo not drawn) [endo-17] here?
A: The IC50 was > 500 µM.

Q: Which IC50 [1, 4] does the source give for COc1ccccc1CNc1ccc(C2C=CC3CC2c2ccccc23)cc1 (stereo not drawn) [endo-15] here?
A: The IC50 was > 500 µM.

Q: Which IC50 [1, 4] does the source give for C1=C[C@H](c2ccc(NCc3ccccc3)cc2)[C@H]2C[C@@H]1c1ccccc12 [endo-4, N-Benzyl-4-((5R,6S,9S)-6,9-dihydro-5H-5,9-methanobenzo[7]annulen-6-yl)aniline] here?
A: Its IC50 is 110 ± 77 µM.

Q: With CC(C)O/N=C/C/C=C1\C(O)=CC2CC1c1ccccc12 (stereo not drawn) [Compound 31] as the compound, how does the IC50 [1, 9] read?
A: The IC50 was 90 ± 40 µM.

Q: Which results are given for CCOC1C[C@@H]2C[C@@H](c3ccccc32)[C@H]1c1ccc(OC)cc1 (stereo partly drawn) [endo-46, (5R,6S,9S)-7-Ethoxy-6-(4-methoxyphenyl)-6,7,8,9-tetrahydro-5H-5,9-methanobenzo-[7]annulene]?
A: IC50 (recombinant human AChE; [5]): 270 ± 110 µM; IC50 [1, 6]: > 500 µM

Q: Which IC50 [1, 4] does the source give for Fc1ccccc1CNc1ccc(C2C=CC3CC2c2ccccc23)cc1 (stereo not drawn) [endo-18] here?
A: Its IC50 is > 500 µM.

Q: Which IC50 (AChE) does the source give for Clc1ccc(C2C=CC3CC2c2ccccc23)cc1 (stereo not drawn) [endo-1, 11-(4-Chlorophenyl)tricyclo[6.3.1.0^²,7]dodeca-2,4,6,9-tetraene] here?
A: Its IC50 is 17.5 µM.

Q: With Fc1cccc(CNc2ccc(C3C=CC4CC3c3ccccc34)cc2)c1 (stereo not drawn) [endo-19] as the compound, how does the IC50 [1, 4] read?
A: Its IC50 is > 500 µM.
